# Test results published in US8648066B2 (Exelixis, Inc., priority 2009, dated 2014).
# Columns and labels:
# mTOR/GbL/Raptor (mTORC1) = mTOR/GbL/Raptor (mTORC1) (Homo sapiens, UniProt P42345); assay: mTOR/GbL/Raptor (mTORC1) ELISA assay; assay type: biochemical; conditions: phosphorylation of 4E-BP1; 0.2 nM mTORC1, 10 μM ATP; read-out: IC50 in this assay (mTORC1 ELISA)
# How it was run: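 ELISA read-out: phospho-4E-BP1 captured on Ni-chelate plates and detected with anti-phospho antibody plus HRP-anti-IgG luminescence. The kinase step ran 120 min at ambient temperature with 0.2 nM human mTORC1, 10 µM ATP, 50 nM His-4E-BP1, 10 mM MnCl2, pH 7.2 HEPES.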
# PI3Kα = PI3Kα (Homo sapiens, UniProt P42336); assay: PI3K biochemical assay (luciferase-luciferin ATP consumption); conditions: 1.5 nM enzyme, 1 μM ATP, 10 μM PIP2; read-out: IC50 for PI3Kα in this assay
# Description: PI3Kα activity is measured as the percent of ATP consumed following the kinase reaction using luciferase-luciferin-coupled chemiluminescence. Reactions were conducted in 384-well white, medium binding microtiter plates (Greiner). Kinase reactions were initiated by combining test compounds, ATP, substrate (PIP2), and kinase in a 20 μL volume in a buffer solution. The standard PI3Kalpha assay buffer is composed 50 mM Tris, pH 7.5, 1 mM EGTA, 10 mM MgCl2, 1 mM DTT and 0.03% CHAPS. The standard assay concentrations for enzyme, ATP, and substrate are 1.5 nM, 1 μM, and 10 μM, respectively. The reaction mixture was incubated at ambient temperature for approximately 2 h. Following the kinase reaction, a 10 μL aliquot of luciferase-luciferin mix (Promega Kinase-Glo) was added and the chemiluminescence signal measured using a Victor2 plate reader (Perkin Elmer). Total ATP consumption was limited to 40-60% and IC50 values of control compounds correlate well with literature references. Substituting PI3Kα with PI3Kβ, PI3Kγ, or PI3Kδ, the inhibitory activity of the compounds for the other isoforms of I3K were measured.
# Chain of PI3Kα (P42336 whole entry, species assumed): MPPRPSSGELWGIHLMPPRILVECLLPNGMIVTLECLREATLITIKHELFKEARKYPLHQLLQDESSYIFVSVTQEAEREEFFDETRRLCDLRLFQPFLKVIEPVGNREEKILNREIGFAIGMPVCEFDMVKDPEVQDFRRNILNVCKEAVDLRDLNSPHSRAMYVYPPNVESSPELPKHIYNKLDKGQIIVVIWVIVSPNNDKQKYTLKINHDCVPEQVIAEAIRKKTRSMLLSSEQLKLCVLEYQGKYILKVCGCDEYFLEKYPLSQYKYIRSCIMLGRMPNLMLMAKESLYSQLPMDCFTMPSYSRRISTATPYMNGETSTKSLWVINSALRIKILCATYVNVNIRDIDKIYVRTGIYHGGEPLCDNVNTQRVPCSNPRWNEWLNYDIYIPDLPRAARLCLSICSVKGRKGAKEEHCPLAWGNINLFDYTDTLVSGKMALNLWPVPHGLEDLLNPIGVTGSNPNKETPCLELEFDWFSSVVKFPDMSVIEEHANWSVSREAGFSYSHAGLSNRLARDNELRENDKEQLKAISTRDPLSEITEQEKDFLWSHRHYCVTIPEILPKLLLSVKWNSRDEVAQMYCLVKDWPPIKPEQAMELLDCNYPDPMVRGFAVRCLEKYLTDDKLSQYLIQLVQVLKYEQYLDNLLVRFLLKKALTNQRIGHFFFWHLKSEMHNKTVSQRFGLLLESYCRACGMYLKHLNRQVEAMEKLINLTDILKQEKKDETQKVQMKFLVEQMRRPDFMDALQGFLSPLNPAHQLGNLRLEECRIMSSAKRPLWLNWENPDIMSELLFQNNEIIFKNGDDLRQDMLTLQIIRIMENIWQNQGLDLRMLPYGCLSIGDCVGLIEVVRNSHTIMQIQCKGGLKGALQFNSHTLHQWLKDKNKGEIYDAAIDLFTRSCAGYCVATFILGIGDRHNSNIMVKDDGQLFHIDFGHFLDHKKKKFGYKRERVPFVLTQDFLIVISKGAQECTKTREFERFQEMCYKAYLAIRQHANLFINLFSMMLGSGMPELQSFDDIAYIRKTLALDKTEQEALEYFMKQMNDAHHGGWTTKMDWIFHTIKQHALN
# Chain of PI3Kα (P27986 whole entry partner, species assumed): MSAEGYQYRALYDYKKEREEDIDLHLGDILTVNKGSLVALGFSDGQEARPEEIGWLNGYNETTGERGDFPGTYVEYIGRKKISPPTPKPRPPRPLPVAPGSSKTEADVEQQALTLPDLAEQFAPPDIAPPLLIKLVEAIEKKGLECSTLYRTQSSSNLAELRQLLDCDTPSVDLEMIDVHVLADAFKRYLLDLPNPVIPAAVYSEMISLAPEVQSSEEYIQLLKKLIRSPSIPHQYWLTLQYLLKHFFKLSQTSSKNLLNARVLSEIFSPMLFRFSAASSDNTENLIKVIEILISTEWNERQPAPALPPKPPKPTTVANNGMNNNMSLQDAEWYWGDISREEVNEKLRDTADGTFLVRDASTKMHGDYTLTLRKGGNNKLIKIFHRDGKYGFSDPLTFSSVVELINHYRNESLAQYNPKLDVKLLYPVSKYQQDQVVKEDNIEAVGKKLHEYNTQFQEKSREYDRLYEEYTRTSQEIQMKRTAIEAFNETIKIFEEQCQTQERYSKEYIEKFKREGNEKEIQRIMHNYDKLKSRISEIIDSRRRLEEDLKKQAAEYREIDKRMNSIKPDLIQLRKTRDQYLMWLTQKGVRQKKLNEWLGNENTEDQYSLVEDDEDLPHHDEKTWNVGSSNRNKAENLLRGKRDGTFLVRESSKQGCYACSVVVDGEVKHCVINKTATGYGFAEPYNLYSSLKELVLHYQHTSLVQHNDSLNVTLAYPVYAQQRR
Structure (SMILES),IC50 (mTOR/GbL/Raptor (mTORC1)) [µM],IC50 (PI3Kα) [µM]
"Cc1nc2ccc(-c3ccc4c(c3)CN(c3ncnc(C)c3CC(C)C)CCO4)cc2[nH]1 [Example 67, 7-(2-methyl-1H-benzimidazol-6-yl)-4-[6-methyl-5-(2-methylpropyl)pyrimidin-4-yl]-2,3,4,5-tetrahydro-1,4-benzoxazepine]",0.25 to 1,1 to 2
"c1ccc(-c2nc(N3CCOc4ccc(-c5ccc6nc[nH]c6c5)cc4C3)c3ccccc3n2)cc1 [Example 232, 7-(1H-benzimidazol-6-yl)-4-(2-phenylquinazolin-4-yl)-2,3,4,5-tetrahydro-1,4-benzoxazepine]",≥ 2,1 to 2
"C[C@H](NC(=O)OCc1ccccc1)c1nc2ncc(-c3ccc4c(c3)CN(c3ncnc5c3CC(C)(C)CC5)CCO4)cc2[nH]1 [Example 647, phenylmethyl [(1S)-1-{6-[4-(6,6-dimethyl-5,6,7,8-tetrahydroquinazolin-4-yl)-2,3,4,5-tetrahydro-1,4-benzoxazepin-7-yl]-1H-imidazo[4,5-b]pyridin-2-yl}ethyl]carbamate]",0.25 to 1,≥ 2
"Cc1ncc(S(=O)(=O)N2CCOCC2)c(N2CCOc3ccc(-c4cnc5nc(C)[nH]c5c4)cc3C2)n1 [Example 561, 7-(2-methyl-1H-imidazo[4,5-b]pyridin-6-yl)-4-[2-methyl-5-(morpholin-4-ylsulfonyl)pyrimidin-4-yl]-2,3,4,5-tetrahydro-1,4-benzoxazepine]",0.25 to 1,1 to 2
"Cc1nc2ccc(-c3ccc4c(c3)CN(c3ccccn3)CCO4)cc2[nH]1 [Example 104, 7-(2-methyl-1H-benzimidazol-6-yl)-4-pyridin-2-yl-2,3,4,5-tetrahydro-1,4-benzoxazepine]",≥ 2,≥ 2
"Cc1nc2ncc(-c3ccc4c(c3)CN(c3ncnc5c3ccn5C)CCO4)cc2[nH]1 [Example 557, 7-(2-methyl-1H-imidazo[4,5-b]pyridin-6-yl)-4-(7-methyl-7H-pyrrolo[2,3-d]pyrimidin-4-yl)-2,3,4,5-tetrahydro-1,4-benzoxazepine]",0.25 to 1,≥ 2
"CC1(C)CCc2ncnc(N3CCOc4ccc(-c5cnc6c(c5)OCC(=O)N6)cc4C3)c2C1 [Example 572, 7-[4-(6,6-dimethyl-5,6,7,8-tetrahydroquinazolin-4-yl)-2,3,4,5-tetrahydro-1,4-benzoxazepin-7-yl]-2H-pyrido[3,2-b][1,4]oxazin-3(4H)-one]",≥ 2,1 to 2
"Cc1nc2ncc(-c3ccc4c(c3)CN(c3ncnc5c3C(C(F)(F)F)CCC5)CCO4)cc2[nH]1 (stereo not drawn) [Example 562, 7-(2-methyl-1H-imidazo[4,5-b]pyridin-6-yl)-4-[5-(trifluoromethyl)-5,6,7,8-tetrahydroquinazolin-4-yl]-2,3,4,5-tetrahydro-1,4-benzoxazepine]",0.25 to 1,1 to 2
"Cc1nc2ccc(-c3ccc4c(c3)CN(c3ncnc5c3CSC5)CCO4)cc2[nH]1 [Example 75, 4-(5,7-dihydrothieno[3,4-d]pyrimidin-4-yl)-7-(2-methyl-1H-benzimidazol-6-yl)-2,3,4,5-tetrahydro-1,4-benzoxazepine]",0.25 to 1,1 to 2
"COc1cccc(-c2ccc3c(c2)CN(c2nc(CN(C)C)nc4c2CC(C)(C)CC4)CCO3)c1 [Example 328, 1-(6,6-dimethyl-4-{7-[3-(methyloxy)phenyl]-2,3-dihydro-1,4-benzoxazepin-4(5H)-yl]-5,6,7,8-tetrahydroquinazolin-2-yl)-N,N-dimethylmethanamine]",≥ 2,1 to 2
"COC(=O)Nc1nc2cc(-c3ccc4c(c3)CN(c3ccnc5ccccc35)CCO4)ccc2n1C [Example 115, methyl [1-methyl-5-(4-quinolin-4-yl-2,3,4,5-tetrahydro-1,4-benzoxazepin-7-yl)-1H-benzimidazol-2-yl]carbamate]",≥ 2,1 to 2
"Cc1c(N2CCOc3ccc(-c4cnc5nc(C6CC6)[nH]c5c4)cc3C2)ncnc1N(C)[C@H](C)c1ccccc1 [Example 535, 6-[7-(2-cyclopropyl-1H-imidazo[4,5-b]pyridin-6-yl)-2,3-dihydro-1,4-benzoxazepin-4(5H)-yl]-N,5-dimethyl-N-[(1R)-1-phenylethyl]pyrimidin-4-amine]",0.25 to 1,1 to 2
"COc1ccc(-c2ccc3c(c2)CN(c2nc(CN(C)C)nc4c2CC(C)(C)CC4)CCO3)cc1 [Example 329, 1-(6,6-dimethyl-4-{7-[4-(methyloxy)phenyl]-2,3-dihydro-1,4-benzoxazepin-4(5H)-yl}-5,6,7,8-tetrahydroquinazolin-2-yl)-N,N-dimethylmethanamine]",≥ 2,1 to 2
"Cc1ncnc(N2CCOc3ccc(-c4ccc(C(=O)N[C@H]5CCNC5)cc4)cc3C2)c1Cc1ccc(F)cc1 [Example 173, 4-(4-{5-[(4-fluorophenyl)methyl]-6-methylpyrimidin-4-yl}-2,3,4,5-tetrahydro-1,4-benzoxazepin-7-yl)-N-[(3S)-pyrrolidin-3-yl]benzamide]",0.25 to 1,≥ 2
"Cc1ccc(N2Cc3ncnc(N4CCOc5ccc(-c6ccc7nc(C)[nH]c7c6)cc5C4)c3C2)cc1 [Example 88, 7-(2-methyl-1H-benzimidazol-6-yl)-4-[6-(4-methylphenyl)-6,7-dihydro-5H-pyrrolo[3,4-d]pyrimidin-4-yl]-2,3,4,5-tetrahydro-1,4-benzoxazepine]",1 to 2,≥ 2
"c1ccc2c(N3CCOc4ccc(-c5ccsc5)cc4C3)ccnc2c1 [Example 204, 4-quinolin-4-yl-7-(3-thienyl)-2,3,4,5-tetrahydro-1,4-benzoxazepine]",≥ 2,1 to 2
"Cc1nc2ccc(-c3ccc4c(c3)CN(c3nc(SCc5ccccc5)nc5c3CCC5)CCO4)cc2[nH]1 [Example 53, 7-(2-methyl-1H-benzimidazol-6-yl)-4-{2-[(phenylmethyl)thio]-6,7-dihydro-5H-cyclopenta[d]pyrimidin-4-yl}-2,3,4,5-tetrahydro-1,4-benzoxazepine]",0.25 to 1,≥ 2
"[H]/N=c1\ncc(-c2ccc3c(c2)CN(c2ncnc4c2CC(C)(C)CC4)CCO3)cn1O [Example 231, (2E)-5-[4-(6,6-dimethyl-5,6,7,8-tetrahydroquinazolin-4-yl)-2,3,4,5-tetrahydro-1,4-benzoxazepin-7-yl]-2-iminopyrimidin-1(2H)-ol]",1 to 2,≥ 2
"Cc1nc2c(-c3ccc4c(c3)CN(c3ncnc5c3CC(C)(C)CC5)CCO4)cncc2[nH]1 [Example 475, 4-(6,6-dimethyl-5,6,7,8-tetrahydroquinazolin-4-yl)-7-(2-methyl-3H-imidazo[4,5-c]pyridin-7-yl)-2,3,4,5-tetrahydro-1,4-benzoxazepine]",≥ 2,≥ 2
Cc1nc2ccc(-c3ccc4c(c3)CN(c3cc(C(C)(C)O)nc5c3CC(C)(C)CC5)CCO4)cc2[nH]1 [Example 362],0.05 to 0.25,0.05 to 0.25
"c1ccc2sc(-c3ccc4c(c3)CN(c3ccnc5ccccc35)CCO4)cc2c1 [Example 206, 7-(1-benzothien-2-yl)-4-quinolin-4-yl-2,3,4,5-tetrahydro-1,4-benzoxazepine]",1 to 2,≥ 2
"CC(=O)Nc1cc(-c2ccc3c(c2)CN(c2ncnc4c2CC(C)(C)CC4)CCO3)cnc1Cl [Example 622, N-{2-chloro-5-[4-(6,6-dimethyl-5,6,7,8-tetrahydroquinazolin-4-yl)-2,3,4,5-tetrahydro-1,4-benzoxazepin-7-yl]pyridin-3-yl}acetamide]",0.25 to 1,1 to 2
"CSc1nc2c(c(N3CCOc4ccc(-c5ccc6nc(C)[nH]c6c5)cc4C3)n1)CC(C)C2 (stereo not drawn) [Example 71, 7-(2-methyl-1H-benzimidazol-6-yl)-4-[6-methyl-2-(methylthio)-6,7-dihydro-5H-cyclopenta[d]pyrimidin-4-yl]-2,3,4,5-tetrahydro-1,4-benzoxazepine]",1 to 2,1 to 2
"Cc1cc(N2CCOc3ccc(-c4ccc5[nH]cnc5c4)cc3C2)nc(N)n1 [Example 688, 4-[7-(1H-benzimidazol-5-yl)-2,3-dihydro-1,4-benzoxazepin-4(5H)-yl]-6-methylpyrimidin-2-amine]",0.25 to 1,1 to 2
"Cc1nc2ccc(-c3ccc4c(c3)CN(c3ncnc(Cc5ccccc5)c3C)CCO4)cc2[nH]1 [Example 41, 7-(2-methyl-1H-benzimidazol-6-yl)-4-[5-methyl-6-(phenylmethyl)pyrimidin-4-yl]-2,3,4,5-tetrahydro-1,4-benzoxazepine]",0.25 to 1,1 to 2
"Cc1nc2ccc(-c3ccc4c(c3)CN(c3ncnc5[nH]ncc35)CCO4)cc2[nH]1 [Example 52, 7-(2-methyl-1H-benzimidazol-6-yl)-4-(1H-pyrazolo[3,4-d]pyrimidin-4-yl)-2,3,4,5-tetrahydro-1,4-benzoxazepine]",1 to 2,≥ 2
"Cc1nccc(N2CCOc3ccc(-c4cnc5nc(C)[nH]c5c4)cc3C2)n1 [Example 85, 7-(2-methyl-1H-imidazo[4,5-b]pyridin-6-yl)-4-(2-methylpyrimidin-4-yl)-2,3,4,5-tetrahydro-1,4-benzoxazepine]",0.05 to 0.25,1 to 2
